{"source": "patent US6025378A", "about": "“Bicyclic heterocyclic compounds” (Bayer Aktiengesellschaft, priority 1995, dated 2000)", "data": [{"test_system": "ApoB-100-associated lipoproteins released from HepG2 cells", "assay": "Inhibition of the release of ApoB-100-associated lipoproteins from cultured hepatic HepG2 cells (immunoassay for human LDL)", "type": "cell-based", "conditions": "HepG2 cells; culture supernatant; absorption at 450 nm inhibited by 50% vs solvent control; read-out: Apo B IC50", "protocol": "(§1) 1. Inhibition of the Release of ApoB-100-associated Lipoproteins\n(§2) The test for detection of the inhibition of the release of ApoB-100-associated lipoproteins from hepatic cells was carried out in vitro with cultured hepatic cells, preferably with cells of the human line HepG2. These cells are cultured under standard conditions in medium for culture of eukaryotic cells, preferably in RPMI 1640 with 10% foetal calf serum. HepG2 cells synthesize and secrete into the culture supernatant ApoB-100-associated lipoprotein particles, which are in principle built up similarly to the VLDL and LDL particles which are to be found in plasma.\n(§3) These particles can be detected with an immunoassay for human LDL. This immunoassay is carried out with antibodies which have been induced against human LDL in rabbits under standard conditions. The anti-LDL antibodies (rab-anti-LDL-Ab) were purified by affinity chromatography on an immunosorbent with human LDL. These purified rab-anti-LDL-Ab are adsorbed onto the surface of plastic. This adsorption is expediently carried out on the plastic surface of microtiter plates with 96 wells, preferably on MaxiSorp plates. If ApoB-100-associated particles are present in the supernatant of Hep-G2 cells, these can bond to the insolubilized rab-anti-LDL-Ab, and an immune complex bonded to the plastic surface is formed. Non-bonded proteins are removed by washing The immune complex on the plastic source is detected with monoclonal antibodies, which have been induced against human LDL and purified under standard conditions. These antibodies were conjugated with the enzyme peroxidase. Peroxidase converts the colourless substrate TMB into a coloured product in the presence of H2 O2. After acidification of the reaction mixture with H2 SO4, the specific absorption of light is determined at 450 nm, this being a measure of the amount of ApoB-100-associated particles wich had been secreted by the HepG2 cells into the culture supernatant.\n(§4) The IC50 value indicates the concentration of substance at which the absorption of light is inhibited by 50% compared with the control (solvent control without the substance).", "units": {"IC50": "nM"}, "values": [{"smiles": "O=C(N[C@@H](CO)c1ccccc1)C(c1ccc(Cn2c(SCc3ccccc3)nc3ccccc32)cc1)C1CCCC1", "note": "(single isomer, unassigned) [Example 13]", "IC50": 14.3}, {"smiles": "Cc1cccc2c1[nH]c(=S)n2Cc1ccc(C(C(=O)N[C@@H](CO)c2ccccc2)C2CCCC2)cc1", "note": "(some centres unmarked) [Example 55]", "IC50": 19.5}, {"smiles": "Cc1cccc2c1[nH]c(=S)n2Cc1ccc(C(C(=O)N[C@@H](CO)c2ccccc2)C2CCCC2)cc1", "note": "(some centres unmarked) [Example 53]", "IC50": 1690}, {"smiles": "CCc1nc2ccccc2c(=O)n1Cc1ccc(C(C(=O)N[C@@H](CO)c2ccccc2)C2CCCC2)cc1", "note": "(some centres unmarked) [Example 67]", "IC50": 27.4}]}, {"test_system": "ApoB-100-associated lipoproteins released from HepG2 cells", "assay": "Inhibition of the release of ApoB-100-associated lipoproteins from cultured hepatic HepG2 cells (immunoassay for human LDL)", "type": "cell-based", "conditions": "Homo sapiens, HepG2, HepG2 cells; culture supernatant; absorption at 450 nm inhibited by 50% vs solvent control; read-out: Apo B IC50", "protocol": "as §1, §2, §3, §4", "units": {"IC50": "nM"}, "values": [{"smiles": "O=C(N[C@@H](CO)c1ccccc1)C(c1ccc(Cn2c(-c3cscn3)nc3ccccc32)cc1)C1CCCCCC1", "note": "(some centres unmarked) [Example 29]", "IC50": 9.3}, {"smiles": "O=C(N[C@@H](CO)c1ccccc1)C(c1ccc(CN2C(=O)c3ccncc3C2=O)cc1)C1CCCCCC1", "note": "(some centres unmarked) [Example 63]", "IC50": 5.9}, {"smiles": "O=C(N[C@@H](CO)c1ccccc1)C(c1ccc(CN2C(=O)CSc3ccccc32)cc1)C1CCCCCC1", "note": "(some centres unmarked) [Example 59]", "IC50": 29.2}, {"smiles": "CCCCc1nn(Cc2ccc(C(C(=O)N[C@@H](CO)c3ccccc3)C3CCCC3)cc2)c(=O)c2ccccc12", "note": "(some centres unmarked) [Example 73]", "IC50": 29.4}]}]}
